Assays:
[1] = system: HIV-1 viral constructs Q60, K-60, and V-18 in MT-4 T-lymphoid cells; format: cell-based; settings: concentration reducing spread of infection by at least 95%; MT-4 cells, 4 days postinfection
Description: Inhibition of the spread of HIV in cell culture was measured according to Nunberg et al., J. Virol. […] In this assay, MT-4 T-lymphoid cells were infected with HIV-1 (wild-type, unless otherwise indicated) by using a predetermined inoculum, and cultures were incubated for 24 h. At this time, ≦1% of the cells were positive by indirect immunofluorescence. Cells were then extensively washed and distributed into 96-well culture dishes. Serial twofold dilutions of inhibitor were added to the wells, and cultures were continued for 3 additional days. At 4 days postinfection, 100% of the cells in control cultures were infected. HIV-1 p24 accumulation was directly correlated with virus spread. The cell culture inhibitory concentration was defined as the inhibitor concentration in nanomoles/liter which reduced the spread of infection by at least 95%, or CIC95.

HIV = settings: HIV-infected patients; in combination with nucleoside reverse transcriptase inhibitors; cited from earlier work

In the case of `CC(C)(C)NC(=O)[C@@H]1CN(Cc2cccnc2)CCN1C[C@@H](O)C[C@@H](Cc1ccccc1)C(=O)N[C@H]1c2ccccc2C[C@H]1O` [indinavir], the “CIC95 against the viral constructs Q60, K-60, and V-18” value [1] is given as “greater than 1000 nM” and the “reducing HIV viral loads and increasing CD4 cell counts” value (HIV) is given as “highly effective”.

— US6642237B1, “Gamma-hydroxy-2-(fluoroalkylaminocarbonyl)-1-piperazinepentanamides and uses thereof” (Merck & Co., Inc., priority 1999, dated 2003)
